These are literature values, as cited in US10952981B2, “Liquid pharmaceutical compositions of baclofen for oral administration” (SLAYBACK PHARMA LLC, priority 2019, dated 2021).

SMILES strings stand for the structures.

As to `NCC(CC(=O)O)c1ccc(Cl)cc1` (stereo not drawn) [Baclofen, 4-amino-3-(4-chlorophenyl)-butanoic acid], the “Concentration of baclofen obtainable” value (aqueous 0.1N HCl or 0.1N NaOH, Ahuja (1985)) is “greater than 20 mg/mL”. Moreover, the Equilibrium concentration (as referred to for Allen et al., 1996, Johnson and Hart, 1993) is recorded as 4.3 mg/mL. Also, where the note is “at a concentration of 2 mg/mL, near neutral pH”, the “Solubility at near neutral pH” value is on record as “not soluble”. In addition, the Solubility in chloroform result (chloroform) is given as “insoluble”. In addition, the Solubility in methanol result (methanol) is listed as “very slightly soluble”. Besides, the Solubility in water result (water) is reported as “slightly soluble”.
